The results in this text go back to patent US8466145B2, “Dipeptidyl peptidase IV inhibitors” (Orchid Chemicals & Pharmaceuticals Limited, priority 2009, dated 2013).

In series [1] the target is T1, human recombinant Dipeptidyl peptidase 9 enzyme (hrDPP 9) (Homo sapiens, UniProt Q86TI2).
T1 construct: purchased R&D systems
Briefly: DPP 9 assay, cleavage of H-Gly-Pro-AMC. Format: biochemical. Conditions: selectivity for DPP-IV over DPP 9. How it is done: DPP 9 activity was determined by the cleavage rate of 7-amino 4-methylcoumarin (AMC) from the substrate H-Gly-Pro-AMC. In brief, the assay was conducted by adding 10 ng of human recombinant Dipeptidyl peptidase 9 enzyme (hrDPP 9, available commercially from R&D systems) in 70 μL of the assay buffer (50 mM TRIS and 5 mM EDTA, pH 7.7) to a 96 well black flat bottom microtitre plate. Test compound was added as 10 μL additions to all wells except blank and total activity wells. After incubation of test substance with enzyme for 30 minutes at room temperature, 10 μL of 100 μM substrate H-Gly-Pro-AMC was added. After mixing, the plate was left for 30 minutes at room temperature. Then the reaction was terminated by addition of 10 μL of 25% Glacial Acetic Acid. Fluorescence was measured using Spectra Max Gemini XS (Molecular Devices, USA) at an excitation filter of 360 nm and emission filter of 460 nm.
Test compound dissolved in DMSO were diluted with assay buffer at different concentrations and tested in duplicates. Percentage inhibition was calculated with respect to total activity. IC50 value was calculated by using Prism Software.

Series [2] deals with T2, human recombinant Dipeptidyl peptidase IV enzyme (hrDPP IV) (Homo sapiens, UniProt P27487).
T2 construct: purchased R&D systems
T2 sequence (P27487 whole entry): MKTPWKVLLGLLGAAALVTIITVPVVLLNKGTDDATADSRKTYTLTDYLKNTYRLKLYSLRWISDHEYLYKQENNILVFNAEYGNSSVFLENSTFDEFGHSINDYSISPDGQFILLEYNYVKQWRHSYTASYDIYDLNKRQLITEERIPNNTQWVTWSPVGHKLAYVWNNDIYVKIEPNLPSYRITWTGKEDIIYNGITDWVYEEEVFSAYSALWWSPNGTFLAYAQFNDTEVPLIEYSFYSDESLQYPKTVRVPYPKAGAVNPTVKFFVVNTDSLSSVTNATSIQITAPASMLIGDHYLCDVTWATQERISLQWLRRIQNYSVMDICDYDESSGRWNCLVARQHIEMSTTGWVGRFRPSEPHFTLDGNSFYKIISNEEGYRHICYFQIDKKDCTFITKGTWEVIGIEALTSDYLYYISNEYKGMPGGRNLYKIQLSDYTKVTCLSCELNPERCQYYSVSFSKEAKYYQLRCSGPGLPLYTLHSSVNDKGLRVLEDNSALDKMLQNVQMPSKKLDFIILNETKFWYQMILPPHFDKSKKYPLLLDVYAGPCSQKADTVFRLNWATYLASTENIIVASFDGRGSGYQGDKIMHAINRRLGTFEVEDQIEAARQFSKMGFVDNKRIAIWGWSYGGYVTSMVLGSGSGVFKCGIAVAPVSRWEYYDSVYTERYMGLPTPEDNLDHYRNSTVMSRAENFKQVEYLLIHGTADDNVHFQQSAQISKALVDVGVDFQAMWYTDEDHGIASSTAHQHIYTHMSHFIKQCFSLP
Briefly: DPP IV assay, cleavage of H-Gly-Pro-AMC by human recombinant DPP-IV enzyme. The note with it: for inhibition at 0.3 µM: 300 nM compound concentration. The format is biochemical. As for the experimental part: DPP IV activity was determined by the cleavage rate of 7-amino 4-methylcoumarin (AMC) from the substrate H-Gly-Pro-AMC. In brief, the assay was conducted by adding 3 ng of human recombinant Dipeptidyl peptidase IV enzyme (hrDPP IV, available commercially from R&D systems) in 70 μL of the assay buffer (25 mM HEPES, 140 mM NaCl and 1% BSA, pH 7.8) to a 96 well black flat bottom microtitre plate. Test compounds were added as 10 μL additions to all wells except blank and total activity wells. After incubation of test substance with enzyme for 60 minutes at room temperature, 10 μL of 100 μM substrate H-Gly-Pro-AMC was added. After mixing, the plate was left for 20 minutes at room temperature. Then the reaction was terminated by addition of 10 μL of 25% glacial acetic acid. Fluorescence was measured using Spectra Max Gemini XS (Molecular Devices, USA) at an excitation filter of 360 nm and emission filter of 460 nm.
Test compounds dissolved in DMSO were diluted with assay buffer at different concentrations and tested in duplicates. Percentage inhibition was calculated with respect to total activity. IC50 value was calculated using Prism Software.

Series [3] has as its system C57BL/6 mice. Briefly: Oral glucose tolerance test. Format: in vivo. The note with it: compound 10 mg/kg; for Antihyperglycemic activity, reduction in AUC (blood glucose), Time 6.00 hr: glucose 2 g/kg challenge 6.00 hr after compound administration, NA = No activity. How it is done: Effect of compound on glucose tolerance was examined in 7 week old C57BL/6 mice. Animals were kept for 18 h fasting and were challenged with glucose (2 g/kg) 30 min after compound (10 mg/kg) administration. Blood samples for glucose measurement were obtained by tail bleed pre dose and at serial time points after the glucose load (30, 60 and 120 minutes). Blood glucose estimation was done by using ContourTS active strips on glucometer (Bayer). To find the time response on glucose excursion, animals were challenged with glucose at different time point after compound administration (0.5, 2, 4, 6, 8, 12 or 24 hours) at blood glucose was measured at pre (0 minute) and post (30, 60 and 120 minutes) glucose load.
Results of blood glucose were expressed as area under curve (AUC) was calculated using Prism software.

Some results are limits rather than exact numbers.

T1 sequence (Q86TI2 whole entry): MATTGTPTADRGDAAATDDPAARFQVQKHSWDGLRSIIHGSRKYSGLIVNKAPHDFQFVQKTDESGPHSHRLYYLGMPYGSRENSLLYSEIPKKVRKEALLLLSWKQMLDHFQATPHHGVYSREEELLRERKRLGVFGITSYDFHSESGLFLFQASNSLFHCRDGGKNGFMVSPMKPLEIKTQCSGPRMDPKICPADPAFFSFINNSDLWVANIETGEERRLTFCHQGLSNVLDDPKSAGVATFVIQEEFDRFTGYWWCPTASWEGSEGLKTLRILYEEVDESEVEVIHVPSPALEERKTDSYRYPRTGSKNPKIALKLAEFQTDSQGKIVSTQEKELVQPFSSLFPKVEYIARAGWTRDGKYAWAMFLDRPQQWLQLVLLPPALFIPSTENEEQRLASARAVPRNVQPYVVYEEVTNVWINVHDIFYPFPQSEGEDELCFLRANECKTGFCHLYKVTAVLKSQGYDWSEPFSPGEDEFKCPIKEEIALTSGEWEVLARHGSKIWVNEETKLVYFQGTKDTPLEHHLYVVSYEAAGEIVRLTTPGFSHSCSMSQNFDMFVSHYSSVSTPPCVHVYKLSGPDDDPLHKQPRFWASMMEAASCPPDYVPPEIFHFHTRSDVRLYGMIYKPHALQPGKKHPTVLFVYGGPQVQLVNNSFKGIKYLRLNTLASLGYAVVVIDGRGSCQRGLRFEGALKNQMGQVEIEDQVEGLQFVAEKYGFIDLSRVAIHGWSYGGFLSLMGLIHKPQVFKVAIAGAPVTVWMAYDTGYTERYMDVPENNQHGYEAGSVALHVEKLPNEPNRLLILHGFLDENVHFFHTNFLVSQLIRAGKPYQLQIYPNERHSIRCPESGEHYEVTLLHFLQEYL

For `Cc1nc(C[C@@H]2CC[C@](C)(NCC(=O)N3C[C@@H](F)C[C@H]3C#N)C2(C)C)no1` [Example 55, (2S,4S)-4-Fluoro-1-(2-((1S,3S)-1,2,2-trimethyl-3-((5-methyl-1,2,4-oxadiazol-3-yl)methyl)cyclopentylamino)acetyl)pyrrolidine-2-carbonitrile], the melting point was in the range of 131 to 133 °C. In addition, the “Selectivity (Fold) DPP 9” value in series [1] is >9000 Fold. In addition, the IC50 in series [2] is 4.39 nM. Further, the “Antihyperglycemic activity, reduction in AUC (blood glucose), Time 0.50 hr” value in series [3] (glucose 2 g/kg challenge 0.50 hr after compound administration) was determined as 48.30%. In addition, the “Antihyperglycemic activity, reduction in AUC (blood glucose), Time 4.00 hr” value in series [3] (glucose 2 g/kg challenge 4.00 hr after compound administration) stood at 45.69%. Besides, the “Antihyperglycemic activity, reduction in AUC (blood glucose), Time 6.00 hr” value in series [3] is 28.28%. In series [3] (glucose 2 g/kg challenge 8.00 hr after compound administration), the “Antihyperglycemic activity, reduction in AUC (blood glucose), Time 8.00 hr” value is recorded as 18.63%.

On to `CC1(C)[C@H](Cc2noc(-c3ccncc3)n2)CC[C@]1(C)NCC(=O)N1C[C@@H](F)C[C@H]1C#N` [Example 63, (2S,4S)-4-Fluoro-1-(2-((1S,3S)-1,2,2-trimethyl-3-((5-(pyridin-4-yl)-1,2,4-oxadiazol-3-yl)methyl)cyclopentylamino)acetyl)pyrrolidine-2-carbonitrile], for which the melting point lay within 180 to 184 °C. Also, the “Selectivity (Fold) DPP 9” value in series [1] is >1850 Fold. In series [2], the IC50 amounted to 19.2 nM and the inhibition at 0.3 µM was found to be 92.6%.

Consider `CC1(C)[C@H](Cc2noc(C(F)(F)F)n2)CC[C@]1(C)NCC(=O)N1C[C@@H](F)C[C@H]1C#N` [Example 56, (2S,4S)-4-Fluoro-1-(2-((1S,3S)-1,2,2-trimethyl-3-((5-(trifluoromethyl)-1,2,4-oxadiazol-3-yl)methyl)cyclopentylamino)acetyl)pyrrolidine-2-carbonitrile], for which the melting point was 130 to 131 °C. In series [2], the IC50 came out at 19.6 nM and the inhibition at 0.3 µM worked out at 95.7%. Moreover, in series [3], the “Antihyperglycemic activity, reduction in AUC (blood glucose), Time 6.00 hr” value came out at 7.07%.

For `CC(C)c1nc(C[C@@H]2CC[C@](C)(NCC(=O)N3C[C@@H](F)C[C@H]3C#N)C2(C)C)no1` [Example 61, (2S,4S)-4-Fluoro-1-(2-((1S,3S)-3-((5-isopropyl-1,2,4-oxadiazol-3-yl)methyl)-1,2,2-trimethylcyclopentylamino)acetyl)pyrrolidine-2-carbonitrile methanesulfonate], in series [1], the “Selectivity (Fold) DPP 9” value is >7271 Fold. For the same compound, in series [2], the IC50 was found to be 13.8 nM and the inhibition at 0.3 µM turned out to be 96.2%.

For `CC1(C)[C@H](CN2CCCC2)CC[C@]1(C)NCC(=O)N1C[C@@H](F)C[C@H]1C#N` [Example 37, (2S,4S)-4-Fluoro-1-(2-((1S,3R)-1,2,2-trimethyl-3-(pyrrolidin-1-ylmethyl)cyclopentylamino)acetyl)pyrrolidine-2-carbonitrile], the melting point lay in the range of 123 to 126 °C. Also, the IC50 in series [2] was found to be 22.4 nM.

`CC(C)c1noc([C@]2(C)CC[C@H](NCC(=O)N3C[C@@H](F)C[C@H]3C#N)C2(C)C)n1` [Example 67, (2S,4S)-4-Fluoro-1-(2-((1S,3R)-3-(3-isopropyl-1,2,4-oxadiazol-5-yl)-2,2,3-trimethylcyclopentylamino)acetyl)pyrrolidine-2-carbonitrile] returned a melting point of 82 to 85 °C. Also, the inhibition at 0.3 µM in series [2] was 79.2%.

As for `CC1(C)[C@H](CNS(=O)(=O)c2ccc(F)cc2)CC[C@]1(C)NCC(=O)N1C[C@@H](F)C[C@H]1C#N` [Example 20], the melting point fell in the range of 75 to 78 °C. The IC50 in series [2] was found to be 105 nM.

The compound `CC1(C)[C@H](Cc2noc(C3CCCCC3)n2)CC[C@]1(C)NCC(=O)N1C[C@@H](F)C[C@H]1C#N` [Example 59, (2S,4S)-1-(2-((1S,3S)-3-((5-Cyclohexyl-1,2,4-oxadiazol-3-yl)methyl)-1,2,2-trimethylcyclopentylamino)acetyl)-4-fluoropyrrolidine-2-carbonitrile] displayed a melting point of 152 to 153 °C. The inhibition at 0.3 µM in series [2] was 67.7%.

`CC1(C)[C@H](CNC(=O)C2CCC(F)(F)CC2)CC[C@]1(C)NCC(=O)N1C[C@@H](F)C[C@H]1C#N` [Example 23, N-(((1R,3S)-3-(2-((2S,4S)-2-Cyano-4-fluoropyrrolidin-1-yl)-2-oxoethylamino)-2,2,3-trimethylcyclopentyl)methyl)-4,4-difluorocyclohexane carboxamide]: the melting point lay in the range of 189 to 194 °C. The inhibition at 0.3 µM in series [2] is 86.2%.

`CC1(C)[C@@H](CNc2ncccc2C#N)CC[C@@]1(C)NCC(=O)N1C[C@@H](F)C[C@H]1C#N` [Example 26, 2-(((1S,3R)-3-(2-((2S,4S)-2-Cyano-4-fluoropyrrolidin-1-yl)-2-oxoethylamino)-2,2,3-trimethylcyclopentyl)methylamino)nicotinonitrile] had a melting point of 96 to 99 °C. For the same compound, the inhibition at 0.3 µM in series [2] was 63.2%.

In turn, `CC(C)(C)c1nc(C[C@@H]2CC[C@](C)(NCC(=O)N3C[C@@H](F)C[C@H]3C#N)C2(C)C)no1` [Example 58, (2S,4S)-1-(2-((1S,3S)-3-((5-tert-Butyl-1,2,4-oxadiazol-3-yl)methyl)-1,2,2-trimethylcyclopentylamino)acetyl)-4-fluoropyrrolidine-2-carbonitrile] registered a melting point of 152 to 154 °C. Also, the inhibition at 0.3 µM in series [2] came to 91.4%.

Regarding `CC1(C)[C@H](Cn2nccn2)CC[C@]1(C)NCC(=O)N1C[C@@H](F)C[C@H]1C#N` [Example 12, (2S,4S)-1-(2-((1S,3R)-3-((2H-1,2,3-Triazol-2-yl)methyl)-1,2,2-trimethylcyclopentylamino)acetyl)-4-fluoropyrrolidine-2-carbonitrile], the melting point was 142 to 144 °C. Besides, the IC50 in series [2] is 37.2 ± 3.67 nM.

For `CC1(C)[C@@H](Cn2cc(CO)nn2)CC[C@@]1(C)NCC(=O)N1C[C@@H](F)C[C@H]1C#N` [Example 15, (2S,4S)-4-Fluoro-1-(2-((1R,3S)-3-((4-(hydroxymethyl)-1H-1,2,3-triazol-1-yl)methyl)-1,2,2-trimethyleyclopentylamino)acetyl)pyrrolidine-2-carbonitrile], the melting point lay within 240 to 279 °C. The inhibition at 0.3 µM in series [2] came out at 60.5%.

In turn, `CC1(C)[C@@H](CNC(=O)C2CCC(F)(F)CC2)CC[C@@]1(C)NCC(=O)N1C[C@@H](F)C[C@H]1C#N` [Example 22, N-(((1S,3R)-3-(2-((2S,4S)-2-Cyano-4-fluoropyrrolidin-1-yl)-2-oxoethylamino)-2,2,3-trimethylcyclopentyl)methyl)-4,4-difluorocyclohexane carboxamide] showed a melting point of 193 to 195 °C. The inhibition at 0.3 µM in series [2] amounted to 72.7%.

Consider `Cc1nc(C[C@H]2CC[C@@](C)(NCC(=O)N3C[C@@H](F)C[C@H]3C#N)C2(C)C)no1` [Example 54, (2S,4S)-4-Fluoro-1-(2-((1R,3R)-1,2,2-trimethyl-3-((5-methyl-1,2,4-oxadiazol-3-yl)methyl)cyclopentylamino)acetyl)pyrrolidine-2-carbonitrile], for which the melting point lay in the range of 121 to 123 °C. Further, the inhibition at 0.3 µM in series [2] was determined as 64.9%.

Consider `CC1(C)[C@@H](CN2CCCCC2)CC[C@@]1(C)NCC(=O)N1C[C@@H](F)C[C@H]1C#N` [Example 39, (2S,4S)-4-Fluoro-1-(2-((1R,3S)-1,2,2-trimethyl-3-(piperidin-1-ylmethyl)cyclopentylamino)acetyl)pyrrolidine-2-carbonitrile], for which the melting point lay in the range of 100 to 103 °C. Moreover, in series [2], the inhibition at 0.3 µM came to 45.9%.
